Data taken from article PMC5814047, “Peptidic inhibitors of insulin-degrading enzyme with potential for dermatological applications discovered via phage display” (PLoS ONE, 2018).
“And” between values parts separate entries of the source, which are not always exact repeats. Equal entries are not always repeated. Blank lines part the entries; values can stand above or below the compound they belong to. Ends that are not written are not given here.

Key:
[1] = target: T1, IDE (Homo sapiens, UniProt P14735); experiment: biochemical; details: for Percent activity at 500 uM, Mean: N 4; for IC50: dose-response, FRET1; for IC50 <500 uM?: initial test at 500 uM; for remaining activity at 500 µM: individual replicates, read-out: Percent activity at 500 uM, Replicate 1-4
T1 construct: made in house; host or cells: bacteria
T1 sequence (P14735 1-1019): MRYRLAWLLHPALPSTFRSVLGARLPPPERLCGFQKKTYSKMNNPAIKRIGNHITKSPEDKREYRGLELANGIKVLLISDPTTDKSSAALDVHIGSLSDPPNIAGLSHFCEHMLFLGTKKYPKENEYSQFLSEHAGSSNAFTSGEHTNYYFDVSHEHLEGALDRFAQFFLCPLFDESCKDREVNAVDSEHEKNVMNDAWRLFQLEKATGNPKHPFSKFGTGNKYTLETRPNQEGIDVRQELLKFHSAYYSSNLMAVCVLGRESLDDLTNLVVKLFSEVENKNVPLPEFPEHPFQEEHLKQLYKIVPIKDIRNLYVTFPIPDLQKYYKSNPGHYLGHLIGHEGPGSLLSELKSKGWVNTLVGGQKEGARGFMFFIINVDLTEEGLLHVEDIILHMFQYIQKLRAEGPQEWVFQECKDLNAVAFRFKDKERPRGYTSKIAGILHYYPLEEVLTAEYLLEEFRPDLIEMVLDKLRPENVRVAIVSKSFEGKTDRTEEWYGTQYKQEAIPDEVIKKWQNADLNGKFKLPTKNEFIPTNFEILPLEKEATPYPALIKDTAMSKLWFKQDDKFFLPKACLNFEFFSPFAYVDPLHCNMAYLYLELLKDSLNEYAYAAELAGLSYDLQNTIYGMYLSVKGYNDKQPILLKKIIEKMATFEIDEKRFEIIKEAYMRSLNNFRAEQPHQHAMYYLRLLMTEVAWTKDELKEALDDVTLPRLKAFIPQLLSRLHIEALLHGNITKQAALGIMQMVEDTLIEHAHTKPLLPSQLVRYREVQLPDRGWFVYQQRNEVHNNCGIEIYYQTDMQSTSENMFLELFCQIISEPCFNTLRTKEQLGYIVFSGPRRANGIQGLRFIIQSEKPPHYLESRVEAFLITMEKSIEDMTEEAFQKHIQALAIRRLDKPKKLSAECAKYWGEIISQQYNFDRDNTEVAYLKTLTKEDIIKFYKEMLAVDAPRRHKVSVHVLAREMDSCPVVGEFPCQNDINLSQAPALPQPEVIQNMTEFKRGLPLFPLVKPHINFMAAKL
Description: The six selected peptide sequences (C7C-1, C7C-2, 12–1, 12–2, 12–3 and 12–4) were synthesized, together with a variety of modifications, yielding a total of 25 peptides (Table 1). […] Other modifications included N-terminal acetylation and C-terminal amidation, included to mimic the charge state of the peptides when incorporated in the phage coat protein (Table 1).
(§1) IDE activity was quantified by monitoring the degradation of Mca-[…](Dnp) (FRET1, 5 μM), fluoresceinated and biotinylated amyloid ß-protein (FAßB; 500 nM) or recombinant human insulin (50 nM) in PBS supplemented with 0.05% BSA. […] In vitro activity assays incorporated recombinant human IDE (1 nM) purified from bacteria. For quantitation of insulin degradation in primary murine skin fibroblasts, cells (1 x 10^5/well) were plated in 96-well plates and maintained in DMEM supplemented with 10% fetal bovine serum (FBS), 2mM glutamine, penicillin and streptomycin. After addition of insulin (10 nM or 100 nM), samples of conditioned medium were removed daily and quickly frozen, then insulin levels were quantified in parallel by ELISA according to manufacturer’s recommendations (Crystal Chem, Downers Grove, IL, USA). Assessment of the activity of P12-3A against a variety of matrix-metalloproteases was conducted using the Matrix Metalloproteinase (MMP) Inhibitor Profiling Kit, Fluorometric RED (Enzo Life Sciences, Inc., Farmingdale, NY, USA) according to manufacturer’s recommendations using the broad-spectrum MMP inhibitor, NNGH, as a positive control.

[2] = target: T1, IDE; experiment: biochemical; details: for Ki: substrate recombinant human insulin 50 nM, Ki from IC50 with the Cheng-Prusoff equation
Text: The six selected peptide sequences (C7C-1, C7C-2, 12–1, 12–2, 12–3 and 12–4) were synthesized, together with a variety of modifications, yielding a total of 25 peptides (Table 1). For the 12-mer peptides, we synthesized variants of the parent peptides truncated at one or both termini, to test whether the entire sequence was necessary or not, in the hope that shorter, and thus less expensive, sequences might be effective. Other modifications included N-terminal acetylation and C-terminal amidation, included to mimic the charge state of the peptides when incorporated in the phage coat protein (Table 1). To assess the extent to which these peptide sequences inhibit IDE, we quantified their potency in protease activity assays using recombinant human IDE and two different substrates: FRET1, a fluorogenic peptide, and recombinant human insulin.
IDE activity was quantified by monitoring the degradation of Mca-[…](Dnp) (FRET1, 5 μM), fluoresceinated and biotinylated amyloid ß-protein (FAßB; 500 nM) or recombinant human insulin (50 nM) in PBS supplemented with 0.05% BSA. FRET1 degradation was measured by changes in fluorescence (λex = 340 nm, λem = 420 nm); FAßB degradation was monitored by fluorescence polarization (λex = 488 nm, λem = 525 nm), as described; and insulin degradation was quantified by ELISA. In vitro activity assays incorporated recombinant human IDE (1 nM) purified from bacteria. For quantitation of insulin degradation in primary murine skin fibroblasts, cells (1 x 10^5/well) were plated in 96-well plates and maintained in DMEM supplemented with 10% fetal bovine serum (FBS), 2mM glutamine, penicillin and streptomycin. After addition of insulin (10 nM or 100 nM), samples of conditioned medium were removed daily and quickly frozen, then insulin levels were quantified in parallel by ELISA according to manufacturer’s recommendations (Crystal Chem, Downers Grove, IL, USA). Assessment of the activity of P12-3A against a variety of matrix-metalloproteases was conducted using the Matrix Metalloproteinase (MMP) Inhibitor Profiling Kit, Fluorometric RED (Enzo Life Sciences, Inc., Farmingdale, NY, USA) according to manufacturer’s recommendations using the broad-spectrum MMP inhibitor, NNGH, as a positive control.

[3] = target: T1, IDE; experiment: Vulnerability of peptides to degradation by IDE: 0 vs 4 h pre-incubation, then FRET1 assay; assay type: biochemical; details: for Percent Activity (normalized initial velocity of FRET1 hydrolysis) / remaining activity at 0.12207 µM / remaining activity at 0.488281 µM / remaining activity at 1.95312 µM / remaining activity at 7.8125 µM / remaining activity at 31.25 µM / remaining activity at 125 µM / remaining activity at 500 µM: relative to DMSO-only controls; for Ki: Cheng-Prusoff from IC50, FRET1 KM 10 uM, substrate 5 uM; for remaining activity at 0.12207 µM / remaining activity at 0.488281 µM / remaining activity at 1.95312 µM / remaining activity at 7.8125 µM / remaining activity at 31.25 µM / remaining activity at 125 µM / remaining activity at 500 µM: 4 h, read-out: Percent Activity (normalized initial velocity of FRET1 hydrolysis); for IC50: FRET1 assay
Description: as §1

[4] = initial test, percent of initial velocity relative to DMSO-only controls
[5] = peptide at 10 uM, insulin 100 nM, normalized to DMSO-only and no-enzyme controls
[6] = 4-hr incubation, Cmpd 0.12207 uM, individual runs
[7] = 4-hr incubation, Cmpd 0.488281 uM, individual runs
[8] = 4-hr incubation, Cmpd 1.95312 uM, individual runs
[9] = 4-hr incubation, Cmpd 7.8125 uM, individual runs
[10] = 4-hr incubation, Cmpd 31.25 uM, individual runs
[11] = 4-hr incubation, Cmpd 125 uM, individual runs
[12] = 4-hr incubation, Cmpd 500 uM, individual runs
[13] = substrate FRET1 5 μM, Ki from IC50 with the Cheng-Prusoff equation, read-out: Ki FRET1
[14] = 4-hr incubation, individual replicates, read-out: IC50s
[15] = 4-hr incubation, mean of 2 replicates, read-out: IC50s, Mean

Percent activity at 500 uM, Mean [1, 4]: 3.0%
Percent activity at 500 uM, Mean ([1]; judged as IC50 <100 uM?): 48.5%
percent decrease in insulin detected by ELISA, Replicate 1 [2, 5]: 77.7%
percent decrease in insulin detected by ELISA, Replicate 2 [2, 5]: 71.2%
percent decrease in insulin detected by ELISA, Replicate 3 [2, 5]: 96.7%
percent decrease in insulin detected by ELISA, Replicate 4 [2, 5]: 88.5%
percent decrease in insulin detected by ELISA, Mean ([2]; peptide at 10 uM, insulin 100 nM, normalized to DMSO-only and no-enzyme controls, N=4): 83.5%
Percent Activity (normalized initial velocity of FRET1 hydrolysis) ([3]; 0-hr incubation, Cmpd 0.12207 uM, individual runs): 96.4522% and 96.759% and 99.5993%
Percent Activity (normalized initial velocity of FRET1 hydrolysis) ([3]; 0-hr incubation, Cmpd 0.488281 uM, individual runs): 102.379% and 100.264% and 105.198%
Percent Activity (normalized initial velocity of FRET1 hydrolysis) ([3]; 0-hr incubation, Cmpd 1.95312 uM, individual runs): 104.101% and 99.4736% and 108.303%
Percent Activity (normalized initial velocity of FRET1 hydrolysis) ([3]; 0-hr incubation, Cmpd 7.8125 uM, individual runs): 98.6262% and 96.0429% and 106.212%
Percent Activity (normalized initial velocity of FRET1 hydrolysis) ([3]; 0-hr incubation, Cmpd 31.25 uM, individual runs): 88.0717% and 83.2988% and 94.9104%
Percent Activity (normalized initial velocity of FRET1 hydrolysis) ([3]; 0-hr incubation, Cmpd 125 uM, individual runs): 50.9238% and 50.5662% and 58.9795%
Percent Activity (normalized initial velocity of FRET1 hydrolysis) ([3]; 0-hr incubation, Cmpd 500 uM, individual runs): 18.0015% and 16.3891% and 26.5742%
Percent Activity (normalized initial velocity of FRET1 hydrolysis) [3, 6]: 81.980% and 88.388%
Percent Activity (normalized initial velocity of FRET1 hydrolysis) [3, 7]: 82.055% and 87.340%
Percent Activity (normalized initial velocity of FRET1 hydrolysis) [3, 8]: 95.585% and 92.840%
Percent Activity (normalized initial velocity of FRET1 hydrolysis) [3, 9]: 94.853% and 93.557%
Percent Activity (normalized initial velocity of FRET1 hydrolysis) [3, 10]: 102.800% and 95.281%
Percent Activity (normalized initial velocity of FRET1 hydrolysis) [3, 11]: 90.299% and 99.861%
Percent Activity (normalized initial velocity of FRET1 hydrolysis) [3, 12]: 61.928% and 59.590%
Compound: LPWCTPHC [P12-3D]

IC50 ([1]; read-out: IC50s, Mean): 210 µM
IC50 <500 uM? [1]: YES
remaining activity at 500 µM [1, 4]: 13.4%
remaining activity at 500 µM ([1]; judged as IC50 <100 uM?): 61.2%
Ki [1, 13]: > 100 µM
IC50 ([2]; from initial test at 10 uM using insulin (100 nM), read-out: IC50 (summary of results, listed in Table 1)): > 10 µM
Ki [2]: > 10 µM
Ki ([3]; 4-hr incubation): 515 µM
remaining activity at 0.12207 µM [3, 6]: 102%
remaining activity at 0.488281 µM [3, 7]: 91.2%
remaining activity at 1.95312 µM [3, 8]: 99.3%
remaining activity at 7.8125 µM [3, 9]: 97.1%
remaining activity at 31.25 µM [3, 10]: 90.2%
remaining activity at 125 µM [3, 11]: 47.6%
remaining activity at 500 µM [3, 12]: 20.6%
IC50 ([3]; 0-hr incubation (immediately after combining enzyme and peptide), individual runs, read-out: IC50s): 138 µM and 282 µM
IC50 [3, 14]: 791 µM and 755 µM
IC50 [3, 15]: 773 µM
Compound: CC(=O)N[C@@H](Cc1c[nH]c2ccccc12)C(=O)N[C@@H](CC(=O)O)C(=O)N[C@@H](Cc1ccccc1)C(=O)N[C@@H](CCCNC(=N)N)C(=O)N[C@@H](CCC(N)=O)C(=O)N[C@@H](Cc1c[nH]c2ccccc12)C(=O)N[C@@H](Cc1c[nH]c2ccccc12)C(=O)N[C@@H](CCC(N)=O)C(N)=O [P12-1D]

Ki ([1]; Cheng-Prusoff, KM 10 uM, substrate concentration 5 uM, read-out: Ki values, Mean): 4.25 µM
IC50 ([1]; individual runs, read-out: IC50s, Run 1-6): 6.41 µM and 2.96 µM and 9.75 µM
IC50 ([1]; read-out: IC50s, Mean): 6.37 µM
IC50 <500 uM? [1]: YES
remaining activity at 500 µM ([1]; judged as IC50 <100 uM?): 17.7%
Ki [1, 13]: 4.2 ± 1.3 µM
IC50 <10 uM? ([2]; initial test at 10 uM using insulin (100 nM)): YES
IC50 ([2]; insulin ELISA assay, dose-response, Replicates 1-3, read-out: IC50s, individual replicates): 6.44 µM and 6.45 µM and 2.48 µM
IC50 ([2]; insulin ELISA assay, dose-response, N=3, read-out: IC50s, Mean): 5.12 µM
Ki [2]: 2.6 ± 0.7 µM
Ki ([3]; 4-hr incubation): 43.5 µM
remaining activity at 0.12207 µM [3, 6]: 78.9%
remaining activity at 0.488281 µM [3, 7]: 81.8%
remaining activity at 1.95312 µM [3, 8]: 85.3%
remaining activity at 7.8125 µM [3, 9]: 83.2%
remaining activity at 31.25 µM [3, 10]: 35.7%
remaining activity at 125 µM [3, 11]: 51.3%
remaining activity at 500 µM [3, 12]: 27.1%
IC50 [3, 14]: 63.7 µM and 66.6 µM
IC50 [3, 15]: 65.2 µM
Compound: WSPISGKFFQRF-NH2 [P12-4A]
